The values below come from paper PMC7127030 (Bioorganic & Medicinal Chemistry Letters, 2009).

The term IC50 denotes the concentration that inhibits the measured activity by half.

In test [1] the target is T1, SCV Hel duplex DNA-unwinding activity (Severe acute respiratory syndrome coronavirus, UniProt P0C6X7). The note with it: read-out: IC50 SCV Hel duplex DNA-unwinding; cited from earlier work.
The target of test [2] is T1, SCV Hel duplex DNA-unwinding activity. Format: biochemical, SARS coronavirus.

Each structure is given as a SMILES string.

For `COc1cc(C23OC4(O)CC(O)(CC(O)(C4)O2)O3)ccc1O` [vanillinbananin], in test [1], the IC50 was 2.7 µM.

In the case of `O=C(O)/C(O)=C/C(=O)c1ccc(OCc2ccc(Cl)cc2)cc1` [Compound 2], the “inhibition of helicase duplex DNA-unwinding activity” value in test [2] was “neither 2 nor 3 showed inhibition”. For `O=C(O)/C(O)=C/C(=O)c1cccc(OCc2ccccc2)c1` [Compound 3], the “inhibition of helicase duplex DNA-unwinding activity” value in test [2] is “neither 2 nor 3 showed inhibition”.
